Results published in US7759331B2, “Pyridine-containing macroheterococylic compounds as kinase inhibitors” (Janssen Pharmaceutica NV, priority 2006, dated 2010).

Legend:
Assay in all cases: Protein kinase selectivity panel
Assay type in all cases: biochemical
Conditions in all cases: 1.0 μM compound, 10 μM ATP
CDK3/cyclinE(h) = CDK3/cyclinE(h) (Homo sapiens, UniProt Q00526)
Procedure: (§1) Protein kinase selectivity assays were performed as described in the scientific literature (Davies, S. P., et al., Biochem. J. 2000, 351, 95-105). Briefly, protein kinases were assayed for their ability to phosphorylate the appropriate peptide/protein substrates in the presence of 1.0 μM compound. Assays were done using 10 μM ATP and were linear with respect to time. The protein kinase selectivity assays were performed by Upstate Cell Signaling Solutions using Upstate's KinaseProfiler™ Selectivity Screening Service.

CK1δ(h) = CK1δ(h) (Homo sapiens, UniProt P48730)
Procedure: as §1

CSK(h) = CSK(h) (Homo sapiens, UniProt P41240)
Procedure: as §1

Fyn(h) = Fyn(h) (Homo sapiens, UniProt P06241)
Procedure: as §1

IGF-1R(h) = IGF-1R(h) (Homo sapiens, UniProt P08069)
Procedure: as §1

MEK1(h) = MEK1(h) (Homo sapiens, UniProt Q02750)
Procedure: as §1

MST2(h) = molecular target: T1, MST2(h) (Homo sapiens, UniProt Q13188)
T1 sequence (Q13188 1-491): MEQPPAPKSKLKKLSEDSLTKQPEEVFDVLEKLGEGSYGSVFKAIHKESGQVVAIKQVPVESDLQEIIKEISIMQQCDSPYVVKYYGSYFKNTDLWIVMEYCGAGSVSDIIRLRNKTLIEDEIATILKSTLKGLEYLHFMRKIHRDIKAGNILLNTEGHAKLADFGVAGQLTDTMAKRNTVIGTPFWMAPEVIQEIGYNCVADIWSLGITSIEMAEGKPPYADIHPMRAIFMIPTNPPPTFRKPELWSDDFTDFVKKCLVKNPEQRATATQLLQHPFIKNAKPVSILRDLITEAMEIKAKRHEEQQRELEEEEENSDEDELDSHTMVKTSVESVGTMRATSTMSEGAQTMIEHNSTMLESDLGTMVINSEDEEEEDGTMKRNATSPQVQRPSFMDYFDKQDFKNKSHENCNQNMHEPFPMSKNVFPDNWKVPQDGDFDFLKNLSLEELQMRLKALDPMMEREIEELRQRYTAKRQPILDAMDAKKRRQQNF
Procedure: as §1

PKA(h) = PKA(h) (Homo sapiens, UniProt P17612)
Procedure: as §1

PKCι(h) = molecular target: T2, PKCι(h) (Homo sapiens, UniProt P41743)
T2 sequence (P41743 1-596): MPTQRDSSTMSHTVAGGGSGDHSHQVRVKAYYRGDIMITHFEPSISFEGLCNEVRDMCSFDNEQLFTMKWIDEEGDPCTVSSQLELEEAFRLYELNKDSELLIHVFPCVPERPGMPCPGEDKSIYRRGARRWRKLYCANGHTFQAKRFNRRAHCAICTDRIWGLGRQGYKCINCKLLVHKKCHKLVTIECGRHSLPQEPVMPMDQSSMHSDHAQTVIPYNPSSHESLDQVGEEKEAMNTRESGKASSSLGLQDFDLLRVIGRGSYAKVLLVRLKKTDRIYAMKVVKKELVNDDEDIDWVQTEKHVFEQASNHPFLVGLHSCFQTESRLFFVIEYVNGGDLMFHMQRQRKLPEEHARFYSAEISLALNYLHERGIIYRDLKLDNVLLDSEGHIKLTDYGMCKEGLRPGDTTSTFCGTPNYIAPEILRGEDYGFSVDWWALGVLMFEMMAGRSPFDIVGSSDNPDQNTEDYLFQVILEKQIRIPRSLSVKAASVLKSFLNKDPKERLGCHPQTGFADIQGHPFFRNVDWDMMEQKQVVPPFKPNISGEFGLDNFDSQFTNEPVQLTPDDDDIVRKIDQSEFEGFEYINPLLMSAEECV
Procedure: as §1

PKD2(h) = molecular target: T3, PKD2(h) (Homo sapiens, UniProt Q9BZL6)
T3 sequence (Q9BZL6 1-878): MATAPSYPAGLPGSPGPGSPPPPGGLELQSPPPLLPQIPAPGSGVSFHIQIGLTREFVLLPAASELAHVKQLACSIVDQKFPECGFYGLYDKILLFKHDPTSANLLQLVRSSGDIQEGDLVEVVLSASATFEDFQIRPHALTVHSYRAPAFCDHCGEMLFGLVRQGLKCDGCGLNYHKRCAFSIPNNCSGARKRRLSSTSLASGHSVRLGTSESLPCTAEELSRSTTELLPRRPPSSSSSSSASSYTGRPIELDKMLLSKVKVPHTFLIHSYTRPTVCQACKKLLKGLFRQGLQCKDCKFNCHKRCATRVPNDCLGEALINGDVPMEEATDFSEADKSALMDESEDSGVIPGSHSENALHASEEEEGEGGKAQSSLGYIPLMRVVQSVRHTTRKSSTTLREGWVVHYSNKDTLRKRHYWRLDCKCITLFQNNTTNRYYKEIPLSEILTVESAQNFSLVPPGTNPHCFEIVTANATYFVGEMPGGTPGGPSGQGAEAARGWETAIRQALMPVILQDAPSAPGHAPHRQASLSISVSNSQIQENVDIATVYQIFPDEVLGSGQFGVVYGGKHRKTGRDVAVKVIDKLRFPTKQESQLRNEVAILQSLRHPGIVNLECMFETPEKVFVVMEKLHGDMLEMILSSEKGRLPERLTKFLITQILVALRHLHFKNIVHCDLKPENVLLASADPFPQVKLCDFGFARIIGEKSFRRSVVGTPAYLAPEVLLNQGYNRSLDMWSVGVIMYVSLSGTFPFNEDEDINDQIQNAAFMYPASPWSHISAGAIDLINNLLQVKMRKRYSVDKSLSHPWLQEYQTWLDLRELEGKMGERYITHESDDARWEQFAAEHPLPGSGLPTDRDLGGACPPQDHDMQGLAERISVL
Procedure: as §1

ROCK-II(h) = ROCK-II(h) (Homo sapiens, UniProt O75116)
Procedure: as §1

ROCK-II(r) = ROCK-II(r) (Rattus norvegicus, UniProt Q62868)
Procedure: as §1

Rsk2(h) = Rsk2(h) (Homo sapiens, UniProt P51812)
Procedure: as §1

Rsk3(h) = Rsk3(h) (Homo sapiens, UniProt Q15349)
Procedure: as §1

Tie2(h) = Tie2(h) (Homo sapiens, UniProt Q02763)
Procedure: as §1

Sequence of ROCK-II(r) (Q62868 whole entry): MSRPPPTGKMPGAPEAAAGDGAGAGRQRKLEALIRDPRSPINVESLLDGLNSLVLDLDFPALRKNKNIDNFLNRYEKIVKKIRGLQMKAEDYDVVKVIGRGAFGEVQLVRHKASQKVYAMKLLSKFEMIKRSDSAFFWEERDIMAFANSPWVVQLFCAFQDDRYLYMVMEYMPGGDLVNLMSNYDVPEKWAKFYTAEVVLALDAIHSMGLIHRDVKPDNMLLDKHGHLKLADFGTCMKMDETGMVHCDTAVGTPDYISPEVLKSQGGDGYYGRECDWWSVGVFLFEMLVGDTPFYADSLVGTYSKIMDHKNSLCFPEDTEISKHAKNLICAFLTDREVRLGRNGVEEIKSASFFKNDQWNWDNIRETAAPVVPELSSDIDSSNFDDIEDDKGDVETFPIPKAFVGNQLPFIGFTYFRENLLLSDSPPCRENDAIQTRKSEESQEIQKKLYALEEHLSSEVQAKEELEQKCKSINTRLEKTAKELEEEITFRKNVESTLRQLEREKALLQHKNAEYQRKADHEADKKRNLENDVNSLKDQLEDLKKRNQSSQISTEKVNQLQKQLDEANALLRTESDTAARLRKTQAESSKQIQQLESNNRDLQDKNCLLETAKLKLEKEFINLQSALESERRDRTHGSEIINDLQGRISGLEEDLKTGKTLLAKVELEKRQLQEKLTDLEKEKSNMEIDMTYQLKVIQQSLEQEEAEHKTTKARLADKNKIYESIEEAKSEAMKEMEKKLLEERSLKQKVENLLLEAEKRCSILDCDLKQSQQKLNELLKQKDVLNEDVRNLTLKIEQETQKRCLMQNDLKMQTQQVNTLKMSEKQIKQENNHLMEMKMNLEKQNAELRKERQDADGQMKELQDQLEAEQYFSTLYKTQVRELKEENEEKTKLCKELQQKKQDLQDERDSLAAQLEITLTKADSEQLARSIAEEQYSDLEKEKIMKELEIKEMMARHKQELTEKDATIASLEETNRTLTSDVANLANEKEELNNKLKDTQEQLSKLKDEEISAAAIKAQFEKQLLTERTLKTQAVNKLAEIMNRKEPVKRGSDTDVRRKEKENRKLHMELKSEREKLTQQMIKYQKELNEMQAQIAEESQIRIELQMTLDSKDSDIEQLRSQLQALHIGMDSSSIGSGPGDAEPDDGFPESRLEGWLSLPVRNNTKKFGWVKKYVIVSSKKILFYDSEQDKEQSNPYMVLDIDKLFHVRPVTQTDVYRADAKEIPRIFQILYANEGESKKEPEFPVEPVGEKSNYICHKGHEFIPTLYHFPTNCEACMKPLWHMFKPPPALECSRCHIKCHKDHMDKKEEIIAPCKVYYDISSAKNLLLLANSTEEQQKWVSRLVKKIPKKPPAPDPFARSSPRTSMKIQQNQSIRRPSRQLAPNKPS
Sequence of CDK3/cyclinE(h) (Q00526 whole entry): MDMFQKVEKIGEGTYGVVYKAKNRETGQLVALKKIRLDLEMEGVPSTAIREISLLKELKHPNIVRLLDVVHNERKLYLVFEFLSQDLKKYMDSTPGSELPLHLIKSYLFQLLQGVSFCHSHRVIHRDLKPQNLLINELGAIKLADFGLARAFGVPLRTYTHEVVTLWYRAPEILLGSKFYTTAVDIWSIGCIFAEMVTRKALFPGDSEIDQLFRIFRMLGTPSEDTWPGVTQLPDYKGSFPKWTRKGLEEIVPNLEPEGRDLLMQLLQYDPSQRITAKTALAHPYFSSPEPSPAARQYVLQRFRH
Sequence of CDK3/cyclinE(h) (P24864 whole entry partner): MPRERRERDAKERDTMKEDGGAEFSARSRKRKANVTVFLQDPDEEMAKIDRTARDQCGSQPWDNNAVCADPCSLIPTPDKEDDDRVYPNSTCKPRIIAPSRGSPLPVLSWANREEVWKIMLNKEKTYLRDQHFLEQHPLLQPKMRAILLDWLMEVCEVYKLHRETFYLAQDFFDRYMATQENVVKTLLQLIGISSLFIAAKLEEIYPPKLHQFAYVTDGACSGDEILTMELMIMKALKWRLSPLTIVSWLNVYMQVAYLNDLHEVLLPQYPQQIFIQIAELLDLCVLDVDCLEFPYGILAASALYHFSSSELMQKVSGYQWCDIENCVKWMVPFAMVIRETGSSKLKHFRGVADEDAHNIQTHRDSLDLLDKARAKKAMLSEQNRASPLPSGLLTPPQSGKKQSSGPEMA
Sequence of Fyn(h) (P06241 whole entry): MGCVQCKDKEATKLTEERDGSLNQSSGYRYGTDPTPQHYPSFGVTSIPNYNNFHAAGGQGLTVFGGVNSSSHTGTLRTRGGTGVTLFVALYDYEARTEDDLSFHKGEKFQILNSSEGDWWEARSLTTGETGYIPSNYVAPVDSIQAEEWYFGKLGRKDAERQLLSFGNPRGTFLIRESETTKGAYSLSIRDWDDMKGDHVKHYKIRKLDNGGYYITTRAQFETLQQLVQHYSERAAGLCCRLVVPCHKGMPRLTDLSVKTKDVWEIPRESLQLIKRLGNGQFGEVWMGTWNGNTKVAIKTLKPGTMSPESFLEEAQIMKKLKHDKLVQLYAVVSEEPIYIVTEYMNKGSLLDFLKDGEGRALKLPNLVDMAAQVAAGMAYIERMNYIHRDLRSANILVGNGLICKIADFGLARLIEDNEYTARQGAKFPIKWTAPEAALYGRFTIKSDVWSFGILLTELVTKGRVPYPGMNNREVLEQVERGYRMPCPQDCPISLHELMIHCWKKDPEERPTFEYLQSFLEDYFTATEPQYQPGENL
Sequence of CK1δ(h) (P48730 whole entry): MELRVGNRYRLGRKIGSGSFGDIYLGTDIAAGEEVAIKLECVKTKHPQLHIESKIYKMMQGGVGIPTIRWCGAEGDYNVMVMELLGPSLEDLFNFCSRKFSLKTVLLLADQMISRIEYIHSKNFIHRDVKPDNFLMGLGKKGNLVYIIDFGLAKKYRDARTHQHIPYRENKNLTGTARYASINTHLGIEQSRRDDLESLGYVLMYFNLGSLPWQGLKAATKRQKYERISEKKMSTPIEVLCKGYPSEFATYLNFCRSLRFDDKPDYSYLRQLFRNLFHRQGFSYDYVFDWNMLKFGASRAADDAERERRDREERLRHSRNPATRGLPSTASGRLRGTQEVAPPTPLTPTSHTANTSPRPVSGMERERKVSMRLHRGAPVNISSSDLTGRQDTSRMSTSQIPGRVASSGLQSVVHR
Sequence of Tie2(h) (Q02763 23-1124): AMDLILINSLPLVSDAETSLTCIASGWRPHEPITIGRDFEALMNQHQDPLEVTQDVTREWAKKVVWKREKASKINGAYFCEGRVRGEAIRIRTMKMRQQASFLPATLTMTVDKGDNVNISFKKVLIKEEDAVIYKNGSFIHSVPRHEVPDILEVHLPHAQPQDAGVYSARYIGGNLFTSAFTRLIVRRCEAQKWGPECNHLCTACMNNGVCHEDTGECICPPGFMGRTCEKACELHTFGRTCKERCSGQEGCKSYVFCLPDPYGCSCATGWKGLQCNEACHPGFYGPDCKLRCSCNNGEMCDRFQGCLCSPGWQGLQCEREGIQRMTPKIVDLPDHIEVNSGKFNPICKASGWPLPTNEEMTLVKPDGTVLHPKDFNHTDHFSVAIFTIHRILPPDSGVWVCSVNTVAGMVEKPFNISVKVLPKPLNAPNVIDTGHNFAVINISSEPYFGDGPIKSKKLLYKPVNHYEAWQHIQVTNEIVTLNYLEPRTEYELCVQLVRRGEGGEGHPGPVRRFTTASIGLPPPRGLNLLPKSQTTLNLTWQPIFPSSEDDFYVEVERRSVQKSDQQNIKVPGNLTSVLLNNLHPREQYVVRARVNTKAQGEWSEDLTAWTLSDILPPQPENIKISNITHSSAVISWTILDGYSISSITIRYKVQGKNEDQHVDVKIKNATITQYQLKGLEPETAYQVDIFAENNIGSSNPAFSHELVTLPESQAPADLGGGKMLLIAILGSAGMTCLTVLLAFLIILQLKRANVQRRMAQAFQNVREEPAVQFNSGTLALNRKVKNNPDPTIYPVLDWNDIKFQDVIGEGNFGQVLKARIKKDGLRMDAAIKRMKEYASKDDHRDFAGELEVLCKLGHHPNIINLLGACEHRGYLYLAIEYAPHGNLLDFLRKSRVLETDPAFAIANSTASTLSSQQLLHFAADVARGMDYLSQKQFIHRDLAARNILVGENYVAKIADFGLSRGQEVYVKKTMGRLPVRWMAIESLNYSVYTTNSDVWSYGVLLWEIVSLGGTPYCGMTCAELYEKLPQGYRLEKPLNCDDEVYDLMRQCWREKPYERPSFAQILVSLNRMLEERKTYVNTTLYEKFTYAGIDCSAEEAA
Sequence of CSK(h) (P41240 whole entry): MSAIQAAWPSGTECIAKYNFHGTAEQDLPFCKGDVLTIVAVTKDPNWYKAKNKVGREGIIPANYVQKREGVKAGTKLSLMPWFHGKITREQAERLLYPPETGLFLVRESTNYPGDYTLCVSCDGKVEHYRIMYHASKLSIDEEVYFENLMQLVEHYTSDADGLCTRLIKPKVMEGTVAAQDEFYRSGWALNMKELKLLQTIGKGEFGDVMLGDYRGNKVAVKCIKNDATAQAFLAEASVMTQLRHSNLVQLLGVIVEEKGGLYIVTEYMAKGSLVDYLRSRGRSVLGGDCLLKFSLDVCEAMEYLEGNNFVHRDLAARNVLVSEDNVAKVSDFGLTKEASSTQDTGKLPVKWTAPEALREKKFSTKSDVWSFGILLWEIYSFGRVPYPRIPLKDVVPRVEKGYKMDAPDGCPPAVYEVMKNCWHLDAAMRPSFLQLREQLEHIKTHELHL
Sequence of MEK1(h) (Q02750 whole entry): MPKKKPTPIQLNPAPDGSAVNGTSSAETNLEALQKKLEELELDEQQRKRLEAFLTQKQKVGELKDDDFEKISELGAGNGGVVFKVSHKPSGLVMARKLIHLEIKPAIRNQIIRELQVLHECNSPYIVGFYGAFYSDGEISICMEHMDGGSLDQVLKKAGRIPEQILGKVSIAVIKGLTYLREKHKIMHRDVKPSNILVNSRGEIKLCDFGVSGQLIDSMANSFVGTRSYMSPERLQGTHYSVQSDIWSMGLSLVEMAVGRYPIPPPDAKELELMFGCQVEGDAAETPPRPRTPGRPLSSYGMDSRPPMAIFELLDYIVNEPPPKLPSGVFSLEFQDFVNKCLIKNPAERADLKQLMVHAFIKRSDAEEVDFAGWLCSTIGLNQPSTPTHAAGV

SMILES	Activity at Protein Kinase Assays (% of control), CDK3/cyclinE(h) (CDK3/cyclinE(h))	Activity at Protein Kinase Assays (% of control), CK1δ(h) (CK1δ(h))	Activity at Protein Kinase Assays (% of control), CSK(h) (CSK(h))	Activity at Protein Kinase Assays (% of control), Fyn(h) (Fyn(h))	Activity at Protein Kinase Assays (% of control), IGF-1R(h) (IGF-1R(h))	Activity at Protein Kinase Assays (% of control), MEK1(h) (MEK1(h))	Activity at Protein Kinase Assays (% of control), MST2(h) (MST2(h))	Activity at Protein Kinase Assays (% of control), PKA(h) (PKA(h))	Activity at Protein Kinase Assays (% of control), PKCι(h) (PKCι(h))	Activity at Protein Kinase Assays (% of control), PKD2(h) (PKD2(h))	Activity at Protein Kinase Assays (% of control), ROCK-II(h) (ROCK-II(h))	Activity at Protein Kinase Assays (% of control), ROCK-II(r) (ROCK-II(r))	Activity at Protein Kinase Assays (% of control), Rsk2(h) (Rsk2(h))	Activity at Protein Kinase Assays (% of control), Rsk3(h) (Rsk3(h))	Activity at Protein Kinase Assays (% of control), Tie2(h) (Tie2(h))
CN(C)c1nc2ccc1CCCCn1cc(c3ccccc31)C1=C(C(=O)NC1=O)c1cn(c3ccccc13)CCC2 [Cpd 1, 31-(dimethylamino)-5,15,25,32-tetraazaheptacyclo[28.2.2.1^5,12.1^18,25.0^6,11.0^13,17.0^19,24]hexatriaconta-1(32),6,8,10,12(36),13(17),18(35),19,21,23,30,33-dodecaene-14,16-dione]	59 % of control	107 % of control	95 % of control	103 % of control	84 % of control	76 % of control	103 % of control	90 % of control	104 % of control	100 % of control	110 % of control	101 % of control	32 % of control	33 % of control	110 % of control
CN(C)c1cc2cc(n1)CCCn1cc(c3ccccc31)C1=C(C(=O)NC1=O)c1cn(c3ccccc13)CCC2 [Cpd 2, 20-(dimethylamino)-4,14,19,26-tetraazaheptacyclo[24.6.1.1^7,14.1^18,22.0^2,6.0^8,13.0^27,32]pentatriaconta-1(33),2(6),7(35),8,10,12,18(34),19,21,27,29,31-dodecaene-3,5-dione]	89 % of control	111 % of control	133 % of control	106 % of control	37 % of control	93 % of control	84 % of control	95 % of control	117 % of control	97 % of control	103 % of control	92 % of control	10 % of control	5 % of control	109 % of control
O=C1NC(=O)C2=C1c1cn(c3ccccc13)CCCc1cc(nc(N3CCCC3)c1)CCCn1cc2c2ccccc21 [Cpd 6, 20-pyrrolidin-1-yl-4,14,19,26-tetraazaheptacyclo[24.6.1.1^7,14.1^18,22.0^2,6.0^8,13.0^27,32]pentatriaconta-1(33),2(6),7(35),8,10,12,18(34),19,21,27,29,31-dodecaene-3,5-dione]	86 % of control	112 % of control	125 % of control	106 % of control	42 % of control	91 % of control	100 % of control	104 % of control	121 % of control	103 % of control	107 % of control	83 % of control	12 % of control	5 % of control	96 % of control
